Measured values taken from patent publication US20100016288A1 (priority 2008, published 2010).

Target: T1, alpha7 nicotinic acetylcholine receptor (Rattus norvegicus, UniProt Q05941)
T1 construct: expressed in transfected cells
Format: cell-based
Conditions: agonist concentration-response 0.001 to 30 microM; rat alpha7 nAChR in GH4C1 cells; assay validation
Source text: Rat GH4C1 cells were then transfected with the rat receptor, cloned and analyzed for functional alpha7 nicotinic receptor expression employing a FLIPR assay to measure changes in intracellular calcium concentrations. […] Three cell lines were then expanded and one characterised pharmacologically (see Table 2 below) prior to its subsequent use for compound screening.
The FLIPR system allows the measurements of real time Ca^2+-concentration changes in living cells using a Ca^2+ sensitive fluorescence dye (such as Fluo4). This instrument enables the screening for agonists and antagonists for alpha 7 nAChR channels stably expressed in GH4C1 cells.
GH4C1 cells stably transfected with rat-alphα7-nAChR (see above) were used. These cells are poorly adherent and therefore pretreatment of flasks and plates with poly-D-lysine was carried out. Cells are grown in 150 cm^2 T-flasks, filled with 30 ml of medium at 37° C. and 5% CO2.
EC50 and IC50 values were calculated using the IDBS XLfit4.1 software package employing a sigmoidal concentration-response (variable slope) equation:
The compounds were tested using the functional FLIPR primary screening assay employing the stable recombinant GH4C1 cell line expressing the alpha7 nAChR. Hits identified were validated further by generation of concentration-response curves.

T1 sequence (Q05941 23-502): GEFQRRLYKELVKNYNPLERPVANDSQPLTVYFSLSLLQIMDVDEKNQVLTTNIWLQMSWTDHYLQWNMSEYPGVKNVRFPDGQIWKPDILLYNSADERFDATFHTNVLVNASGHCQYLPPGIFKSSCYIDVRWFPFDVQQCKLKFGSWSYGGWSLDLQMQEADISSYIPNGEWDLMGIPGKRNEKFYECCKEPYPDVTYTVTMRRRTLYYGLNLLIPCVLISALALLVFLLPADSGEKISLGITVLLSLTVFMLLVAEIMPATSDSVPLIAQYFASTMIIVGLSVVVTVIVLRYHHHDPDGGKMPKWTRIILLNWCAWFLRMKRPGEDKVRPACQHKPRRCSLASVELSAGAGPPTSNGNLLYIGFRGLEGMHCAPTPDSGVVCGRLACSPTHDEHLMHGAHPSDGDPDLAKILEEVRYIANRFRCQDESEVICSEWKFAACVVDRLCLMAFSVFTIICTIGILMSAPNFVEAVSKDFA

Compound C[N+]1(C)CCN(c2ccccc2)CC1 [DMPP] has an EC50 of 980 ± 470 nM.
